In paper PMC12785511, “Integrative Profiling for BBB Permeability Using Capillary Electrochromatography, Experimental Physicochemical Parameters, and Ensemble Machine Learning” (International Journal of Molecular Sciences, 2025):
Like-named read-outs stand apart in the source and are kept apart here.

Assays:
[1] = open-tubular capillary electrochromatography (CEC), permeability k′ parameter; assay type: in vitro ADME; conditions: pH 7.4 HEPES buffer 40 mM, migration times in coated and uncoated capillary, mean ± SD of three independent experiments
[2] = Sirius T3 automated potentiometric titrations with n-octanol, log P / log D; conditions: for logP / logD: n-octanol/water; for Log D7.4: calculated based on the experimentally obtained pKa and log P data
[3] = cited from earlier work
physchem = conditions: for logD: pH 7.4
[4] = Sirius T3 automated potentiometric (pH-metric) titrations, pKa; conditions: ionic strength adjusted (ISA) water ([…] KCl)
[5] = experimental in vivo measurements from rats, data retrieved from literature
[6] = pKa ± SD, […] ISA water or Yasuda–Shedlovsky extrapolation from methanol cosolvent, value used for regression

Structure (SMILES)	k′ ± SD (CEC) [1]	logP [2]	logD ([2]; pH 7.4)	Log BB [3, 5]	pKa [4, 6]	also measured
CC(C)NCC(O)COc1ccc(CC(N)=O)cc1 (stereo not drawn) [atenolol]	0.00183 ± 0.00051	–	–	–	–	–
O=C(O)c1ccccc1O [salicylic acid]	0.02255 ± 0.00676	2.31 ± 0.01	-0.98	–	–	–
COc1ccc2c3c1O[C@H]1[C@@H](O)C=C[C@H]4[C@@H](C2)N(C)CC[C@@]341 [codeine]	−0.01188 ± 0.00888	–	–	–	–	Log BB ([3]; rat, in vivo): 0.55; logP (physchem): 1.14 ± 0.01; logD (physchem): 0.26
C=C[C@H]1C[N@@]2CC[C@H]1C[C@@H]2[C@@H](O)c1ccnc2ccc(OC)cc12 [quinidine]	0.0034 ± 0.0004	–	–	0.33	–	–
CNC(=C[N+](=O)[O-])NCCSCc1ccc(CN(C)C)o1 [ranitidine]	−0.00256 ± 0.00041	0.34 ± 0.02	-0.75	−1.23	8.43 ± 0.01	–
CNCCC=C1c2ccccc2CCc2ccccc21 [nortriptyline]	−0.01133 ± 0.0021	4.29 ± 0.01	1.79	1.04	10.05 ± 0.03	–
CN(C)CCCN1c2ccccc2CCc2ccccc21 [imipramine]	–	–	–	1.30	–	–
CCN(C)C(=O)Oc1cccc([C@H](C)N(C)C)c1 [rivastigmine]	−0.00018 ± 0.00009	–	–	–	–	logD (physchem): 0.66
CNCCc1ccccn1 [betahistine]	0.03582 ± 0.00587	0.49 ± 0.01	-1.95	−0.30	9.84	–
CSc1ccc2c(c1)N(CCC1CCCCN1C)c1ccccc1S2 (stereo not drawn) [thioridazine]	–	5.38 ± 0.03	3.54	0.24	9.25 ± 0.01	–
O=C(O)Cc1ccccc1Nc1c(Cl)cccc1Cl [diclofenac]	0.00802 ± 0.0032	4.33 ± 0.01	1.26	−1.70	–	–
CNCCCN1c2ccccc2CCc2ccccc21 [desipramine]	−0.01523 ± 0.00343	–	–	1.20	–	–
CN(C)CCCC1(c2ccc(F)cc2)OCc2cc(C#N)ccc21 (stereo not drawn) [citalopram]	0.00405 ± 0.00229	–	–	0.48	–	–
CN1CCN2c3ccccc3Cc3ccccc3C2C1 (stereo not drawn) [mianserin]	−0.02148 ± 0.00155	3.74 ± 0.01	3.5	0.99	7.25 ± 0.03	–
CN(C)CCCN1c2ccccc2Sc2ccccc21 [promazine]	−0.01399 ± 0.00228	4.54	2.55	1.23	9.39	logD ([2]; pH 1): 0.83; logD ([2]; pH 1.2): 0.83; logD ([2]; pH 2): 0.83; logD ([2]; pH 3): 0.83; logD ([2]; pH 4): 0.84; logD ([2]; pH 5): 0.91; logD ([2]; pH 6): 1.32; logD ([2]; pH 6.5): 1.71; logD ([2]; pH 7): 2.17; logD ([2]; pH 8): 3.14; logD ([2]; pH 9): 4; logD ([2]; pH 10): 4.45; logD ([2]; pH 11): 4.53; logD ([2]; pH 12): 4.54
CN1CCN(C2=Nc3cc(Cl)ccc3Nc3ccccc32)CC1 [clozapine]	0.00693 ± 0.00245	3.92 ± 0.1	3.52	0.60	–	–
CN(C)CCC=C1c2ccccc2CCc2ccccc21 [amitriptyline]	0.00004 ± 0.00001	4.68 ± 0.02	2.84	1.30	9.23 ± 0.08	–
CN1[C@@H]2CC[C@H]1C[C@@H](OC(=O)C(CO)c1ccccc1)C2 (stereo partly drawn) [atropine]	0.0044 ± 0.00309	–	–	–	–	–
Fc1ccc([C@@H]2CCNC[C@H]2COc2ccc3c(c2)OCO3)cc1 [paroxetine]	0.02144 ± 0.00689	3.39 ± 0.04	–	0.48	9.76 ± 0.08	–
O=C(c1ccccc1)c1ccc2n1CCC2C(=O)O (stereo not drawn) [ketorolac]	0.02127 ± 0.00131	2.9 ± 0.04	-0.05	−2.00	3.64 ± 0.06	–
CCCCC1C(=O)N(c2ccccc2)N(c2ccccc2)C1=O [phenylbutazone]	0.00083 ± 0.00015	–	–	−0.52	–	–
O=C1CC2(CCCC2)CC(=O)N1CCCCN1CCN(c2ncccn2)CC1 [buspirone]	–	–	–	–	7.62	–
O=C(CCCN1CCC(O)(c2ccc(Br)cc2)CC1)c1ccc(F)cc1 [bromperidol]	−0.00795 ± 0.00034	3.87 ± 0.05	2.81	1.38	8.45 ± 0.1	–
OCCN1CCN(CCCN2c3ccccc3Sc3ccc(C(F)(F)F)cc32)CC1 [fluphenazine]	0.111 ± 0.00192	5.12 ± 0.06	4.58	1.51	7.79 ± 0.07	–
CC(C)NCC(O)COc1cccc2ccccc12 (stereo not drawn) [propranolol]	0.00202 ± 0.00061	–	–	0.85	–	–

Structure (SMILES)	k′ ± SD (CEC) [1]	logP [2]	logD ([2]; pH 7.4)	Log BB [3, 5]	pKa [4, 6]	also measured
S=C(NC1CCCCC1)N1CCC(c2cnc[nH]2)CC1 [thioperamide]	0.01849 ± 0.00363	–	–	−0.16	–	logD (physchem): 2.27
Cc1ccc(/C(=C\CN2CCCC2)c2ccccn2)cc1 [triprolidine]	0.01006 ± 0.00233	3.87 ± 0.01	–	0.78	9.39 ± 0.06	Log D7.4 ([2]; pH 7.4): 1.88
CN(C)CCc1c[nH]c2ccc(C[C@H]3COC(=O)N3)cc12 [zolmitriptan]	−0.00882 ± 0.00356	1.19 ± 0.01	-1.01	−1.40	9.6 ± 0.05	–
CN(C)C(=O)C(CCN1CCC(O)(c2ccc(Cl)cc2)CC1)(c1ccccc1)c1ccccc1 [loperamide]	0.0147 ± 0.00102	–	–	0.70	–	logD (physchem): 3.21
Clc1cccc(Cl)c1N=C1NCCN1 [clonidine]	0.00321 ± 0.00046	–	–	0.11	–	pKa [4]: 8.12 ± 0.01
CC(C)NCC(O)COc1cccc2[nH]ccc12 (stereo not drawn) [pindolol]	–	–	–	0.30	–	pKa [4]: 9.62 ± 0.07
CC(C)(C)NCC(O)c1ccc(O)c(CO)c1 (stereo not drawn) [salbutamol]	−0.0103 ± 0.00502	0.3 ± 0.04	–	−1.03	9.6 ± 0.01	Log D7.4 ([2]; pH 7.4): −1.90
COc1ccc(CN(CCN(C)C)c2ccccn2)cc1 [mepyramine]	–	2.73 ± 0.02	1.48	–	8.71 ± 0.05	–
CN1CCN(CCCN2c3ccccc3Sc3ccc(C(F)(F)F)cc32)CC1 [trifluoperazine]	0.2028 ± 0.00151	6.14 ± 0.01	5.53	1.44	–	–
COc1ccc2c(c1)c(CC(=O)O)c(C)n2C(=O)c1ccc(Cl)cc1 [indomethacin]	0.01869 ± 0.00624	6.31 ± 0.12	3.92	−1.26	–	–
CN(C)CCCN1c2ccccc2Sc2ccc(Cl)cc21 [chlorpromazine]	–	5.1 ± 0.03	3.43	–	9.07 ± 0.01	–
Cc1cn([C@H]2C[C@H](N=[N+]=[N-])[C@@H](CO)O2)c(=O)[nH]c1=O [zidovudine]	0.00428 ± 0.00056	0.09 ± 0.01	0.09	–	9.51	–
CCC1(c2ccccc2)C(=O)NC(=O)NC1=O [phenobarbital]	−0.01824 ± 0.00855	–	–	–	–	Log BB ([3]; rat, in vivo): −0.12; logD (physchem): 0.98
CC(=O)Oc1ccccc1C(=O)O [acetylsalicylic acid]	0.03441 ± 0.00987	1.31 ± 0.01	-2.73	−1.30	–	–
C[C@H]1COc2c(N3CCN(C)CC3)c(F)cc3c(=O)c(C(=O)O)cn1c23 [levofloxacin]	–	0.82 ± 0.01	0.77	−0.70	–	–
COc1ccc2cc([C@H](C)C(=O)O)ccc2c1 [naproxen]	0.0105 ± 0.0046	–	–	−1.70	–	–
CC(C)Cc1ccc(C(C)C(=O)O)cc1 (stereo not drawn) [ibuprofen]	−0.0369 ± 0.00011	3.8	1.07	–	–	–
O=C(CCCN1CCC(O)(c2ccc(Cl)cc2)CC1)c1ccc(F)cc1 [haloperidol]	−0.00906 ± 0.00138	4.37 ± 0.08	3.18	–	8.66 ± 0.08	–
Cc1nc2n(c(=O)c1CCN1CCC(c3noc4cc(F)ccc34)CC1)CCCC2 [risperidone]	0.00698 ± 0.00377	3.09 ± 0.03	–	–	–	–
COc1ccc2c3c1O[C@H]1C[C@@H](O)C=C[C@@]31CCN(C)C2 [galanthamine]	–	–	–	–	–	Log BB ([3]; rat, in vivo): 0.00; logP (physchem): 1.15; logD (physchem): 0.18
CCC1(C2=CCCCC2)C(=O)NC(=O)NC1=O [cyclobarbital]	0.00186 ± 0.00088	–	–	–	–	Log BB ([3]; rat, in vivo): −0.30; logD (physchem): 1.16
O=c1n(CCCN2CCN(c3cccc(Cl)c3)CC2)nc2ccccn12 [trazodone]	−0.0108 ± 0.00292	2.98	2.88	0.30	6.83 ± 0.04	–
COc1ccc(C(CN(C)C)C2(O)CCCCC2)cc1 (stereo not drawn) [venlafaxine]	−0.01411 ± 0.00205	2.97	0.7	0.48	9.67 ± 0.02	–
CCN(CC)CCNC(=O)c1cc(Cl)c(N)cc1OC [metoclopramide]	−0.00563 ± 0.00136	–	–	0.08	–	–
OCCOCCN1CCN(C(c2ccccc2)c2ccc(Cl)cc2)CC1 (stereo not drawn) [hydroxyzine]	−0.00058 ± 0.00031	3.73 ± 0.03	3.34	0.90	7.66 ± 0.04	–
